This note sets out measurements from US9072297B2, “Herbicidal composition” (ISHIHARA SANGYO KAISHA, LTD., priority 2010, dated 2015).

In general, inhibition refers to the percentage by which the read-out fell short of the control.

Type in all cases: in vivo
In assay [1] the test system is surinam grass (Brachiaria decumbens Stapf.). The assay can be described thus: Test Example 2: foliar application pot test, surinam grass. The following applies: Urochloa decumbens, read-out: Growth inhibition rate (%) of surinam grass Measured value. How it is done: (§1) Growth inhibition rate (%)= • 0:equivalent to the non-treated area to 100:complete kill
Upland field soil was put into a 1/1,000,000 ha pot, and seeds of surinam grass (Brachiaria decumbens Stapf.) were sown. When the surinam grass reached 2.8 to 3.2 leaf stage, a predetermined amount of each herbicidal composition was diluted with water (corresponding to 200 L/ha) containing 0.25 vol % of an agricultural adjuvant (tradename: Agral, manufactured by Syngenta) and applied by foliar application with a small sprayer.
(§2) On the 28th day after application, the state of growth of the plant was visually observed.

Assay [2] concerns field bindweed (Convolvulus arvensis L.). Put plainly: Test Example 4: soil application pot test, field bindweed. As to conditions: read-out: Growth inhibition rate (%) of field bindweed Measured value. The protocol:
as §1
Upland field soil was put into a 1/1,000,000 ha pot, and seeds of field bindweed (Convolvulus arvensis L.) were sown. On the day after application, a predetermined amount of each herbicidal composition was diluted with water corresponding to 200 L/ha and applied by soil application with a small sprayer.
(§3) On the 42nd day after application, the state of growth of the plant was visually observed.

Assay [3] deals with crabgrass (Digitaria ciliaris (Retz.) Koel). The assay can be described thus: Test Example 6: foliar application pot test, crabgrass 3.8 to 4.0 leaf stage. The following applies: read-out: Growth inhibition rate (%) of crabgrass Measured value. The protocol:
as §1
Upland field soil was put into a 1/1,000,000 ha pot, and seeds of crabgrass (Digitaria ciliaris (Retz.) Koel) were sown. When crabgrass reached 3.8 to 4.0 leaf stage, a predetermined amount of each herbicidal composition was diluted with water (corresponding to 200 L/ha) containing 0.25 vol % of an agricultural adjuvant (tradename: Agral, manufactured by Syngenta) and applied by foliar application with a small sprayer.
as §2

The test system of assay [4] is guineagrass (Panicum maximum Jacq.). The assay can be described thus: Test Example 1: foliar application pot test, guineagrass. As to conditions: Megathyrsus maximus, read-out: Growth inhibition rate (%) of guineagrass Measured value. How it is done: (§4) Upland field soil was put into a 1/1,000,000 ha pot, and seeds of various plants were sown. When the plants reached certain leaf stages (guineagrass (Panicum maximum Jacq.): 4.5 to 5.0 leaf stage, crabgrass (Digitaria ciliaris (Retz.) Koel): 3.0 to 4.2 leaf stage), a predetermined amount of each herbicidal composition was diluted with water (corresponding to 200 L/ha) containing 0.25 vol % of an agricultural adjuvant (tradename: Agral, manufactured by Syngenta) and applied by foliar application with a small sprayer.
(§5) On the 28th day after application, the state of growth of the plants were visually observed and evaluated in accordance with the following evaluation standard. The growth inhibition rate (%) (measured value) and the growth inhibition rate (%) (calculated value) calculated by the Colby's formula are shown in Tables 1 and 2.
as §1

For assay [5], the system named is crabgrass (Digitaria ciliaris (Retz.) Koel). The assay can be described thus: Test Example 1: foliar application pot test, crabgrass. The following applies: read-out: Growth inhibition rate (%) of crabgrass Measured value. The protocol: as §4, §5, §1
For assay [6], the system named is surinam grass (Brachiaria decumbens Stapf.). Put plainly: Test Example 3: soil application pot test, surinam grass. The following applies: Urochloa decumbens, read-out: Growth inhibition rate (%) of surinam grass Measured value. How it is done: as §1
Upland field soil was put into a 1/1,000,000 ha pot, and seeds of surinam grass (Brachiaria decumbens Stapf.) were sown. On the day after application, a predetermined amount of each herbicidal composition was diluted with water corresponding to 200 L/ha and applied by soil application with a small sprayer.
as §3

Assay [7] has as its system crabgrass (Digitaria ciliaris (Retz.) Koel). The assay can be described thus: Test Example 5: foliar application pot test, crabgrass (MonFast adjuvant). As to conditions: read-out: Growth inhibition rate (%) of crabgrass Measured value. The protocol: as §1
Upland field soil was put into a 1/1,000,000 ha pot, and seeds of crabgrass (Digitaria ciliaris (Retz.) Koel) were sown. When crabgrass reached 3.0 to 4.2 leaf stage, a predetermined amount of each herbicidal composition was diluted with water (corresponding to 200 L/ha) containing 0.2 vol % of an agricultural adjuvant (tradename: MonFast, manufactured by Monsanto) and applied by foliar application with a small sprayer.
as §2

The test system is the same in assay [8]. The assay can be described thus: Test Example 7: foliar application pot test, crabgrass 4.5 leaf stage. The following applies: read-out: Growth inhibition rate (%) of crabgrass Measured value; for inhibition at 300 g/ha: foliar. How it is done: as §1
Upland field soil was put into a 1/1,000,000 ha pot, and seeds of crabgrass (Digitaria ciliaris (Retz.) Koel) were sown. When crabgrass reached 4.5 leaf stage, a predetermined amount of each herbicidal composition was diluted with water (corresponding to 200 L/ha) containing 0.25 vol % of an agricultural adjuvant (tradename: Agral, manufactured by Syngenta) and applied by foliar application with a small sprayer.
as §2

Take `CN(C)C(=O)Nc1ccc(Cl)c(Cl)c1` [Diuron, 3-(3,4-dichlorophenyl)-1,1-dimethylurea]: the inhibition at 1250 g/ha in assay [1] (foliar) and in assay [2] (soil) was 0% each time. Further, in assay [3] (foliar), the inhibition at 3000 g/ha was determined as 80%.
As for `COc1cc(OC)nc(NC(=O)NS(=O)(=O)c2ncccc2C(F)(F)F)n1` [Flazasulfuron, 1-(4,6-dimethoxypyrimidin-2-yl)-3-(3-trifluoromethyl-2-pyridylsulfonyl)urea], in assay [4] (dose 20 g/ha, foliar application, 4.5 to 5.0 leaf stage, 28th day after application), the inhibition at 20 g/ha worked out at 90%. Further, the inhibition at 37.5 g/ha was 92% in assay [4] (dose 37.5 g/ha, foliar application, 4.5 to 5.0 leaf stage, 28th day after application); 45% in assay [1] (dose 37.5 g/ha, foliar application, 2.8 to 3.2 leaf stage, 28th day after application); 25% in assay [2] (dose 37.5 g/ha, soil application, 42nd day after application). The inhibition at 25 g/ha in assay [5] (dose 25 g/ha, foliar application, 3.0 to 4.2 leaf stage, Agral, 28th day after application) turned out to be 40%; in assay [6] (dose 25 g/ha, soil application, 42nd day after application) it was 70%. In addition, the inhibition at 30 g/ha in assay [7] (dose 30 g/ha, foliar application, 3.0 to 4.2 leaf stage, MonFast, 28th day after application) was 50%. For the same compound, the inhibition at 40 g/ha in assay [7] (dose 40 g/ha, foliar application, 3.0 to 4.2 leaf stage, MonFast, 28th day after application) is 58%. In addition, the inhibition at 15 g/ha in assay [3] (dose 15 g/ha, foliar application, 3.8 to 4.0 leaf stage, Agral, 28th day after application) is 40%. For the same compound, the inhibition at 100 g/ha in assay [8] (dose 100 g/ha, foliar application, 4.5 leaf stage, Agral, 28th day after application) is 73%.
`CON(C)C(=O)Nc1ccc(Br)cc1` [Metobromuron, 3-(4-bromophenyl)-1-methoxy-1-methylurea]: in assay [7] (foliar), the inhibition at 500 g/ha is 0% and the inhibition at 1000 g/ha came out at 0%. Further, the inhibition at 300 g/ha in assay [8] worked out at 5%.
For `CNC(=O)N(C)c1nnc(C(C)(C)C)s1` [Tebuthiuron, 1-(5-tertiarybutyl-1,3,4-thiadiazol-2-yl)-1,3-dimethylurea], the figures for the inhibition at 500 g/ha in assay [4] (foliar), in assay [5] (foliar) and in assay [6] (soil) were 15%, 0% and 28%, respectively. The inhibition at 300 g/ha in assay [8] turned out to be 17%.
